# Key:
# AKT3 (PKB gamma) = AKT3 (PKB gamma) (Homo sapiens, UniProt Q9Y243); test: SelectScreen kinase profiling, ZLYTE; format: biochemical
# ALK C1156Y = ALK C1156Y (Homo sapiens, UniProt Q9UM73, C1156Y); test: SelectScreen kinase profiling, LanthaScreen binding
# AMPK (A1/B1/G3) = AMPK (A1/B1/G3) (Homo sapiens, UniProt Q13131); test: as above
# AMPK (A2/B2/G2) = AMPK (A2/B2/G2) (Homo sapiens, UniProt P54646); test: as above
# AMPK (A2/B2/G3) = AMPK (A2/B2/G3) (Homo sapiens, UniProt P54646); test: SelectScreen kinase profiling, ZLYTE; format: biochemical
# CSNK2A2 (CK2 alpha 2) = CSNK2A2 (CK2 alpha 2) (Homo sapiens, UniProt P19784); test: SelectScreen kinase profiling, ZLYTE; format: biochemical
# DCAMKL1 (DCLK1) = DCAMKL1 (DCLK1) (Homo sapiens, UniProt O15075); test: SelectScreen kinase profiling, ZLYTE; format: biochemical
# FGR = FGR (Homo sapiens, UniProt P09769); test: SelectScreen kinase profiling, ZLYTE; format: biochemical
# FLT4 (VEGFR3) = FLT4 (VEGFR3) (Homo sapiens, UniProt P35916); test: SelectScreen kinase profiling, ZLYTE; format: biochemical
# KIT T670E = KIT T670E (Homo sapiens, UniProt P10721, T670E); test: SelectScreen kinase profiling, LanthaScreen binding
# KIT Y823D = KIT Y823D (Homo sapiens, UniProt P10721, Y823D); test: as above
# MAP2K1 (MEK1) = MAP2K1 (MEK1) (Homo sapiens, UniProt Q02750); test: as above
# MAP2K4 (MEK4) = MAP2K4 (MEK4) (Homo sapiens, UniProt P45985); test: as above
# MAP2K5 (MEK5) = MAP2K5 (MEK5) (Homo sapiens, UniProt Q13163); test: as above
# MAPK12 (p38 gamma) = MAPK12 (p38 gamma) (Homo sapiens, UniProt P53778); test: SelectScreen kinase profiling, ZLYTE; format: biochemical
# MAPK8 (JNK1) = MAPK8 (JNK1) (Homo sapiens, UniProt P45983); test: SelectScreen kinase profiling, LanthaScreen binding
# MAPK9 (JNK2) = MAPK9 (JNK2) (Homo sapiens, UniProt P45984); test: as above
# MAPKAPK2 = MAPKAPK2 (Homo sapiens, UniProt P49137); test: SelectScreen kinase profiling, ZLYTE; format: biochemical; settings: MAPKAPK2, 10 µM
# MYLK (MLCK) = MYLK (MLCK) (Homo sapiens, UniProt Q15746); test: SelectScreen kinase profiling, LanthaScreen binding
# NUAK1 (ARK5) = NUAK1 (ARK5) (Homo sapiens, UniProt O60285); test: SelectScreen kinase profiling, Adapta; format: biochemical
# PEAK1 = PEAK1 (Homo sapiens, UniProt Q9H792); test: SelectScreen kinase profiling, ZLYTE; format: biochemical; settings: PEAK1, 10 µM
# PRKCE (PKC epsilon) = PRKCE (PKC epsilon) (Homo sapiens, UniProt Q02156); test: SelectScreen kinase profiling, ZLYTE; format: biochemical
# SPHK2 = SPHK2 (Homo sapiens, UniProt Q9NRA0); test: SelectScreen kinase profiling, Adapta; format: biochemical; settings: SPHK2, 10 µM
# STK24 (MST3) = STK24 (MST3) (Homo sapiens, UniProt Q9Y6E0); test: SelectScreen kinase profiling, ZLYTE; format: biochemical
# From the text: (§1) Kinase Technology % Inhibition Avg Kinase Technology % Inhibition Avg […]
# STK25 (YSK1) = STK25 (YSK1) (Homo sapiens, UniProt O00506); test: SelectScreen kinase profiling, ZLYTE; format: biochemical
# From the text: as §1
# STK3 (MST2) = STK3 (MST2) (Homo sapiens, UniProt Q13188); test: SelectScreen kinase profiling, ZLYTE; format: biochemical
# From the text: as §1
# STK4 (MST1) = STK4 (MST1) (Homo sapiens, UniProt Q13043); test: SelectScreen kinase profiling, ZLYTE; format: biochemical
# From the text: as §1
# SYK = SYK (Homo sapiens, UniProt P43405); test: SelectScreen kinase profiling, ZLYTE; format: biochemical
# From the text: as §1
# TAOK2 (TAO1) = TAOK2 (TAO1) (Homo sapiens, UniProt Q9UL54); test: SelectScreen kinase profiling, ZLYTE; format: biochemical
# From the text: as §1
# TBK1 = TBK1 (Homo sapiens, UniProt Q9UHD2); test: SelectScreen kinase profiling, ZLYTE; format: biochemical; settings: TBK1, 10 µM
# From the text: as §1
# TEK (TIE2) Y897S = TEK (TIE2) Y897S (Homo sapiens, UniProt Q02763, Y897S); test: SelectScreen kinase profiling, ZLYTE; format: biochemical
# From the text: as §1
# TEK (Tie2) = TEK (Tie2) (Homo sapiens, UniProt Q02763); test: SelectScreen kinase profiling, ZLYTE; format: biochemical
# From the text: as §1
# TNK1 = TNK1 (Homo sapiens, UniProt Q13470); test: SelectScreen kinase profiling, ZLYTE; format: biochemical; settings: TNK1, 10 µM
# From the text: as §1
# TXK = TXK (Homo sapiens, UniProt P42681); test: SelectScreen kinase profiling, ZLYTE; format: biochemical
# From the text: as §1
# TYK2 = TYK2 (Homo sapiens, UniProt P29597); test: SelectScreen kinase profiling, ZLYTE; format: biochemical; settings: TYK2, 10 µM
# From the text: as §1
# TYRO3 (RSE) = TYRO3 (RSE) (Homo sapiens, UniProt Q06418); test: SelectScreen kinase profiling, ZLYTE; format: biochemical
# From the text: as §1
# EPHA2 = EPHA2 (Homo sapiens, UniProt P29317); test: SelectScreen kinase profiling, ZLYTE; settings: read-out: % Inhibition Avg
# P450 2C9 = P450 2C9 (Homo sapiens, UniProt P11712); test: SelectScreen P450 Vivid biochemical assay; settings: 10000nM; substrate BOMF
# hERG channel = hERG channel (Homo sapiens, UniProt Q12809); test: Predictor hERG fluorescence polarization assay; settings: 10000nM
# Chain of MAPKAPK2 (P49137 whole entry): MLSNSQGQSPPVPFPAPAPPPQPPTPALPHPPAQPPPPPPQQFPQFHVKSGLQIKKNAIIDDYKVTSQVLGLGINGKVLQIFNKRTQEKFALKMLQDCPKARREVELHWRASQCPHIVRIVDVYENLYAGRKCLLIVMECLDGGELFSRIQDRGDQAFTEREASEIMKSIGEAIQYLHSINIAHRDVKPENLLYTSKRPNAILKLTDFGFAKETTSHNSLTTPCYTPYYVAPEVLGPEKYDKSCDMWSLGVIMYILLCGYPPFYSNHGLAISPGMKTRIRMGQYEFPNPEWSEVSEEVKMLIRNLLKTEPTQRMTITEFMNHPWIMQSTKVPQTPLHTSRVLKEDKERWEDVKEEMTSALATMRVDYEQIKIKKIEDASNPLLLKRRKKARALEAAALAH
# Chain of STK4 (MST1) (Q13043 whole entry): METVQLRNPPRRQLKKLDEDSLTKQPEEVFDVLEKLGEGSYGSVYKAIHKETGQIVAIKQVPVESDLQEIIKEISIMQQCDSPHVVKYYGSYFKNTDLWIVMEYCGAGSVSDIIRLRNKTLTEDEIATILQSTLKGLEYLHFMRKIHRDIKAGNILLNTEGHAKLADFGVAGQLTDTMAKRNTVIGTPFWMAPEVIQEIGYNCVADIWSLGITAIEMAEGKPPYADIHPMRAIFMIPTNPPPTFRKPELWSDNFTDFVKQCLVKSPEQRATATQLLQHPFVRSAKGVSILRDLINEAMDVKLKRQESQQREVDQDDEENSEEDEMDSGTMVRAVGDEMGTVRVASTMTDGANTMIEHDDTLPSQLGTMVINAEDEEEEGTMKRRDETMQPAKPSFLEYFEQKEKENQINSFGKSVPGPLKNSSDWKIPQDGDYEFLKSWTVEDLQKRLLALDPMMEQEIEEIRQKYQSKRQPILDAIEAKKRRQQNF
# Chain of P450 2C9 (P11712 whole entry): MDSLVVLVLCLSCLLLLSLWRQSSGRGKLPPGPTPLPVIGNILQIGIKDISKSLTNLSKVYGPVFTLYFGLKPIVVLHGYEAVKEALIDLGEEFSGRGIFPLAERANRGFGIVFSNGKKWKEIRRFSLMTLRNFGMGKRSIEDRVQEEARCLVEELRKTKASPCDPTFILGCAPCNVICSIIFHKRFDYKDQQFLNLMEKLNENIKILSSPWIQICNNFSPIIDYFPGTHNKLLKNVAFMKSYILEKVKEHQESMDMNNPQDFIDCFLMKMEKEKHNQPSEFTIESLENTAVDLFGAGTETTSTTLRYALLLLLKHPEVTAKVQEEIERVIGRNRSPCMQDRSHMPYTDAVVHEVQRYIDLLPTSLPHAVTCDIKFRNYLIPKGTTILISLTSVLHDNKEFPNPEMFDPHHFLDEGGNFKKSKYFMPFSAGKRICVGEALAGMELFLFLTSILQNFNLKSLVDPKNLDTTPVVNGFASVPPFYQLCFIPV
# Chain of TYRO3 (RSE) (Q06418 41-890): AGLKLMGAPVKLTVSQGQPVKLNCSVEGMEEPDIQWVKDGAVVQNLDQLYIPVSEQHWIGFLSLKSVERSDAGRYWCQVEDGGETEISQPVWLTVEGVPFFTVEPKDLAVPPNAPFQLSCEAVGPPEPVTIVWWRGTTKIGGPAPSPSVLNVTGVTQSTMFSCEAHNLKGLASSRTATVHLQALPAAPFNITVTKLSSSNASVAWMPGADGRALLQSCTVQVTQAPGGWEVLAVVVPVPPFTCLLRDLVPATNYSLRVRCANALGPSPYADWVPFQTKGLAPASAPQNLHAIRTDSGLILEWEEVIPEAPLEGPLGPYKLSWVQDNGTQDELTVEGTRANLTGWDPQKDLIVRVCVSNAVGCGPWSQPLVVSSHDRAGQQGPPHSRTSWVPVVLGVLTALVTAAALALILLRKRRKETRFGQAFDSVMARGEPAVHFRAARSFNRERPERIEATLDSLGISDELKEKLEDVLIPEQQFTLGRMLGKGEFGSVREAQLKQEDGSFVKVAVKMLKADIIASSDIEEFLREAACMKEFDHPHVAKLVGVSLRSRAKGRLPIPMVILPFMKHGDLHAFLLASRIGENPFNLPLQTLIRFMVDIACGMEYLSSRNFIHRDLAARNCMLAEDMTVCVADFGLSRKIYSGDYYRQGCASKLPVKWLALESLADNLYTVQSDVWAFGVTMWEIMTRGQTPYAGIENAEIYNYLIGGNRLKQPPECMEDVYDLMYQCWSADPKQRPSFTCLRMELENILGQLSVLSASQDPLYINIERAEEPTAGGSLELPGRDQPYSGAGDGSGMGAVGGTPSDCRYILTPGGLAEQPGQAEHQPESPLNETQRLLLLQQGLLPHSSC
# Chain of TYK2 (P29597 whole entry): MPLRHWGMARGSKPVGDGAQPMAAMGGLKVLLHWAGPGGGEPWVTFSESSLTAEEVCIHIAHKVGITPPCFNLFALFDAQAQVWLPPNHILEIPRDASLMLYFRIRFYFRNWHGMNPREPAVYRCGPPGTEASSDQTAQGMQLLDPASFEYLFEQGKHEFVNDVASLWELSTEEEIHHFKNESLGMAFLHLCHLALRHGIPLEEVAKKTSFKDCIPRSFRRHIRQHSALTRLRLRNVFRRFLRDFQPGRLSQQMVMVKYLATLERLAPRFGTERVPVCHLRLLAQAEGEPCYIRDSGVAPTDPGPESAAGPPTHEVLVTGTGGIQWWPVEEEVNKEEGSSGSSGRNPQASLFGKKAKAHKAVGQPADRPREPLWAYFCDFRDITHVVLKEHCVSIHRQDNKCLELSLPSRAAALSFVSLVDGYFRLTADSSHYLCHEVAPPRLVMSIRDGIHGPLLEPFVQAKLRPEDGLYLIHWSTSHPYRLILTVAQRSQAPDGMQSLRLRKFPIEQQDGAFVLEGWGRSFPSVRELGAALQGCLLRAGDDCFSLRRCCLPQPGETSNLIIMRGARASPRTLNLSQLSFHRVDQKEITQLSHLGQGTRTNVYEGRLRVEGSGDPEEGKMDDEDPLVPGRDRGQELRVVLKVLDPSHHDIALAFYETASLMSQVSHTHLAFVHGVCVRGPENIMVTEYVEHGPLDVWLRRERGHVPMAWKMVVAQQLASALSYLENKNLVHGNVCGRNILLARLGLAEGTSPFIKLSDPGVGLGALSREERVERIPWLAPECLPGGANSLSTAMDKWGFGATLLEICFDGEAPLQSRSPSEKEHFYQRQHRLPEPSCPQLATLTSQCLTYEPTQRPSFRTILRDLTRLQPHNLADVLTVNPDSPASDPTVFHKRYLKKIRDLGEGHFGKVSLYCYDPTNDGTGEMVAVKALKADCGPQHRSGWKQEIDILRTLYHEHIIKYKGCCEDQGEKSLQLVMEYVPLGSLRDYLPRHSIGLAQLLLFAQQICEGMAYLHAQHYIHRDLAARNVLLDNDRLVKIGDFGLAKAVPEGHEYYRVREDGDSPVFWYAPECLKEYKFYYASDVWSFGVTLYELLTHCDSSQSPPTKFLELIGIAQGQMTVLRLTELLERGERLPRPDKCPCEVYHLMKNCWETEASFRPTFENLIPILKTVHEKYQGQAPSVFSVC
# Chain of PRKCE (PKC epsilon) (Q02156 whole entry): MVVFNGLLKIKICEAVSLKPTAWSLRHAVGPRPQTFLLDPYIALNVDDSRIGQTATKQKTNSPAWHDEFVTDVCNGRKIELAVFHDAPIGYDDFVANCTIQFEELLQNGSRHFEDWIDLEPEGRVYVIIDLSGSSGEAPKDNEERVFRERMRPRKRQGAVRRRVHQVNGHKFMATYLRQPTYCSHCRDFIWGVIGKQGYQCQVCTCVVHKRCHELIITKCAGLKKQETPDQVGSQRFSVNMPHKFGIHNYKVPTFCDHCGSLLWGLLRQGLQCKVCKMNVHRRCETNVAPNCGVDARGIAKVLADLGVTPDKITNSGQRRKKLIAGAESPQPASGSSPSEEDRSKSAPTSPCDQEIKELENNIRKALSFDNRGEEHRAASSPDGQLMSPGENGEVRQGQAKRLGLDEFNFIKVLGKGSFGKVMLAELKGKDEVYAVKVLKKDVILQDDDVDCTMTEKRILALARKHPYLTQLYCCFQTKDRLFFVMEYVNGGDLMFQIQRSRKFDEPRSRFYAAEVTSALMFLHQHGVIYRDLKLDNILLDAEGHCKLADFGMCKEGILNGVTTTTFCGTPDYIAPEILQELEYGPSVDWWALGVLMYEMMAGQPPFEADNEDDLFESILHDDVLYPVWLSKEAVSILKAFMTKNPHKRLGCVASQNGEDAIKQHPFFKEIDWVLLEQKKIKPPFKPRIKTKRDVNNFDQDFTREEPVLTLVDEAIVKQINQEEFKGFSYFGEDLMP
# Chain of TNK1 (Q13470 whole entry): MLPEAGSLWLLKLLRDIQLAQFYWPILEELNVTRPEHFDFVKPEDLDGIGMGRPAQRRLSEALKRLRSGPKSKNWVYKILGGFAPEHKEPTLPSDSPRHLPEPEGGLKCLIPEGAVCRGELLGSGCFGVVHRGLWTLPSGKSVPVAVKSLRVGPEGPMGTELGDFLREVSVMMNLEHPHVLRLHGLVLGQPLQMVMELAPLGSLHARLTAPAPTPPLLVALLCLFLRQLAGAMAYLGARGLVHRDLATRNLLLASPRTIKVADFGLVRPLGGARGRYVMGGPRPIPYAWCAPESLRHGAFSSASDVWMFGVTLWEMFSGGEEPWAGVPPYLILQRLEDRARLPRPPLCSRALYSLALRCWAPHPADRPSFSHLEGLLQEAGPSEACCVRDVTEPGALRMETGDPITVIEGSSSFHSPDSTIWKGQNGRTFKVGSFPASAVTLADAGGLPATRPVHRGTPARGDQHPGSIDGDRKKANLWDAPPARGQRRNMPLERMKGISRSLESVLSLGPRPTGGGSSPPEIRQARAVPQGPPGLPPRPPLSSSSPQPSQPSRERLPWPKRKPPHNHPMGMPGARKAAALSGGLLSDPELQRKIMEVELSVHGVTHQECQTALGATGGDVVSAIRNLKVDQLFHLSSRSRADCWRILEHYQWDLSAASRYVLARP
smiles,measurement,setting,value
O=C(c1ccc(/C=C/c2n[nH]c3ccccc23)cc1)N1CCNCC1 [KW-2449],inhibition at 10 µM,AKT3 (PKB gamma),11%
same,inhibition at 10 µM,ALK C1156Y,76%
same,inhibition at 10 µM,AMPK (A1/B1/G3),71%
same,inhibition at 10 µM,AMPK (A2/B2/G2),78%
same,inhibition at 10 µM,AMPK (A2/B2/G3),98%
same,inhibition at 10 µM,CSNK2A2 (CK2 alpha 2),38%
same,inhibition at 10 µM,DCAMKL1 (DCLK1),57%
same,inhibition at 10 µM,FGR,99%
same,inhibition at 10 µM,FLT4 (VEGFR3),95%
same,inhibition at 10 µM,KIT T670E,89%
same,inhibition at 10 µM,KIT Y823D,61%
same,inhibition at 10 µM,MAP2K1 (MEK1),54%
same,inhibition at 10 µM,MAP2K4 (MEK4),79%
same,inhibition at 10 µM,MAP2K5 (MEK5),84%
same,inhibition at 10 µM,MAPK12 (p38 gamma),23%
same,inhibition at 10 µM,MAPK8 (JNK1),81%
same,inhibition at 10 µM,MAPK9 (JNK2),79%
same,inhibition at 10 µM,MAPKAPK2,28%
same,inhibition at 10 µM,MYLK (MLCK),80%
same,inhibition at 10 µM,NUAK1 (ARK5),100%
same,inhibition at 10 µM,PEAK1,91%
same,inhibition at 10 µM,PRKCE (PKC epsilon),10%
same,inhibition at 10 µM,SPHK2,7%
same,inhibition at 10 µM,STK24 (MST3),85%
same,inhibition at 10 µM,STK25 (YSK1),45%
same,inhibition at 10 µM,STK3 (MST2),77%
same,inhibition at 10 µM,STK4 (MST1),93%
same,inhibition at 10 µM,SYK,98%
same,inhibition at 10 µM,TAOK2 (TAO1),87%
same,inhibition at 10 µM,TBK1,99%
same,inhibition at 10 µM,TEK (TIE2) Y897S,80%
same,inhibition at 10 µM,TEK (Tie2),99%
same,inhibition at 10 µM,TNK1,94%
same,inhibition at 10 µM,TXK,94%
same,inhibition at 10 µM,TYK2,99%
same,inhibition at 10 µM,TYRO3 (RSE),92%
same,inhibition at 10 µM,EPHA2,98%
same,% Inhibition 2C9 BOMF,P450 2C9,-2%
same,hERG % Inhibition,hERG channel,19%

# From article PMC6540285, “Evaluation of Protein Kinase Inhibitors with PLK4 Cross-Over Potential in a Pre-Clinical Model of Cancer” (International Journal of Molecular Sciences, 2019)
